Assay results from PubChem BioAssay (NCI).
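Where inhibition never reached the appropriate level, the endpoint shown equals the highest concentration tested. Otherwise, values were interpolated linearly from a five-concentration, 48-hour dose response in 96-well plates. TGI: total growth inhibition.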

What was measured:
Assay in all cases: growth of human tumour cells (NCI), 48 h
[1] = test system: 786-0 renal
[2] = test system: A498 renal
[3] = test system: A549 NSCLC
[4] = test system: ACHN renal
[5] = test system: BT-549 breast
[6] = test system: CCRF-CEM leukemia
[7] = test system: COLO 205 colon
[8] = test system: DU-145 prostate
[9] = test system: EKVX NSCLC
[10] = test system: HCC-2998 colon
[11] = test system: HCT-116 colon
[12] = test system: HCT-15 colon
[13] = test system: HL-60(TB) leukemia
[14] = test system: HOP-62 NSCLC
[15] = test system: HOP-92 NSCLC
[16] = test system: HS 578T breast
[17] = test system: IGROV1 ovarian
[18] = test system: K-562 leukemia
[19] = test system: KM12 colon
[20] = test system: LOX IMVI melanoma
[21] = test system: M14 melanoma
[22] = test system: MALME-3M melanoma
[23] = test system: MCF7 breast
[24] = test system: MDA-MB-231 breast
[25] = test system: MDA-MB-435
[26] = test system: MOLT-4 leukemia
[27] = test system: NCI-H226 lung
[28] = test system: NCI-H23 lung
[29] = test system: NCI-H460 lung
[30] = test system: NCI-H522 lung
[31] = test system: NCI/ADR-RES ovarian
[32] = test system: OVCAR-3 ovarian
[33] = test system: OVCAR-4 ovarian
[34] = test system: OVCAR-5 ovarian
[35] = test system: OVCAR-8 ovarian
[36] = test system: PC-3 prostate
[37] = test system: RPMI-8226 leukemia
[38] = test system: RXF 393 renal
[39] = test system: SF-268 CNS
[40] = test system: SF-295 CNS
[41] = test system: SK-MEL-2 melanoma
[42] = test system: SK-MEL-28 melanoma
[43] = test system: SK-MEL-5 melanoma
[44] = test system: SK-OV-3 ovarian
[45] = test system: SN12C renal
[46] = test system: SNB-19 CNS
[47] = test system: SNB-75 CNS
[48] = test system: SR leukemia
[49] = test system: SW-620 colon
[50] = test system: T-47D breast
[51] = test system: TK-10 renal
[52] = test system: U251 CNS
[53] = test system: UACC-62 melanoma
[54] = test system: UO-31 renal

What does the source list for COc1cccc(-c2cc(=O)c3c(C)cc(C)nc3[nH]2)c1?
TGI [1]: > 100 µM; TGI [2]: 10.8 µM; TGI [3]: > 100 µM; TGI [4]: > 100 µM; TGI [5]: > 100 µM; TGI [6]: 2.87 µM; TGI [7]: 0.637 µM; TGI [8]: > 72.1 µM; TGI [9]: > 100 µM; TGI [10]: 6.19 µM; TGI [11]: > 59.9 µM; TGI [12]: > 45.5 µM; TGI [13]: 0.505 µM; TGI [14]: > 65.1 µM; TGI [15]: > 85 µM; TGI [16]: > 100 µM; TGI [17]: > 67.4 µM; TGI [18]: 1.41 µM; TGI [19]: 16.6 µM; TGI [20]: > 100 µM; TGI [21]: > 100 µM; TGI [22]: > 100 µM; TGI [23]: 27.3 µM; TGI [24]: > 100 µM; TGI [25]: 0.398 µM; TGI [26]: > 71.9 µM; TGI [27]: 9.09 µM; TGI [28]: > 38.4 µM; TGI [29]: > 42.1 µM; TGI [30]: 11.5 µM; TGI [31]: > 100 µM; TGI [32]: 0.652 µM; TGI [33]: > 100 µM; TGI [34]: > 100 µM; TGI [35]: > 100 µM; TGI [36]: > 100 µM; TGI [37]: 6.09 µM; TGI [38]: > 100 µM; TGI [39]: 36.2 µM; TGI [40]: > 73.6 µM; TGI [41]: 97.6 µM; TGI [42]: > 100 µM; TGI [43]: 14.8 µM; TGI [44]: > 100 µM; TGI [45]: > 100 µM; TGI [46]: > 100 µM; TGI [47]: 0.671 µM; TGI [48]: 0.513 µM; TGI [49]: > 100 µM; TGI [50]: > 100 µM; TGI [51]: > 100 µM; TGI [52]: > 88.6 µM; TGI [53]: > 100 µM; TGI [54]: > 100 µM
